Like-named read-outs stand apart in the source and are kept apart here.
How the values were obtained:
DLD-1 = assay: SRB cytotoxicity assay, DLD-1; type: cell-based; conditions: Homo sapiens, read-out: IC50 Cytotoxicity DLD-1
Description: (§1) The cell lines MDA-MB-231 (No. TCHu227), A549 (No. TCHu150), and HepG2 (No. TCHu72) were obtained from the Cell Bank/Stem Cell Bank, Chinese Academy of Sciences (Shanghai, China). The cell lines DLD-1 (No. CC0507) and HCT116 (No. CC0506) were obtained from the Cell Bank of Cellcook Biotech Co., Ltd. (Guangzhou, China). Cell line HL-7702 (No. BNCC338358) was obtained from Bena Culture Collection (Zhengzhou, China).
(§2) The human cancer cell lines MDA-MB-231 (breast adenocarcinoma), DLD-1 (colorectal adenocarcinoma), A549 (lung epithelial carcinoma), HCT116 (colorectal adenocarcinoma), HepG2 (hepatocellular carcinoma), and human hepatocyte HL-7702 were cultured in Dulbecco’s modified eagle medium (DMEM, Biological Industries, Beit Haemek, Israel) containing 10% (v/v) fetal bovine serum (FBS, Biological Industries, Beit Haemek, Israel) at 37 °C in a humidified incubator (ThermoFisher, Carlsbad, CA, USA) with a 5% CO2 atmosphere.

MDA-MB-231 = assay: SRB cytotoxicity assay, MDA-MB-231; type: cell-based; conditions: Homo sapiens, read-out: IC50 Cytotoxicity MDA-MB-231
Description: as §1, §2

HepG2 = assay: SRB cytotoxicity assay, HepG2; type: cell-based; conditions: Homo sapiens, read-out: IC50 Cytotoxicity HepG2
Description: as §1, §2

HCT116 = assay: SRB cytotoxicity assay, HCT116; type: cell-based; conditions: Homo sapiens, read-out: IC50 Cytotoxicity HCT116
Description: as §1, §2

[1] = SRB cytotoxicity assay, hepatocyte HL-7702; type: cell-based, human
Description: as §1, §2

A549 = assay: SRB cytotoxicity assay, A549; type: cell-based; conditions: Homo sapiens, read-out: IC50 Cytotoxicity A549
Description: as §1, §2

DNA Topo I = molecular target: T1, DNA Topo I (Homo sapiens, UniProt P11387); assay: Topo I inhibition assay (DNA relaxation assay); type: biochemical; conditions: for IC50: DNA relaxation assay, pBR322, mean ± SD; for percentage inhibition on Topo I activity / inhibition at 400 µM: at 400 μM; for inhibition at 400 µM: read-out: percentage inhibition on Topo I activity
T1 construct: purchased ThermoFisher, Waltham, MA, USA
T1 sequence (P11387 1-765): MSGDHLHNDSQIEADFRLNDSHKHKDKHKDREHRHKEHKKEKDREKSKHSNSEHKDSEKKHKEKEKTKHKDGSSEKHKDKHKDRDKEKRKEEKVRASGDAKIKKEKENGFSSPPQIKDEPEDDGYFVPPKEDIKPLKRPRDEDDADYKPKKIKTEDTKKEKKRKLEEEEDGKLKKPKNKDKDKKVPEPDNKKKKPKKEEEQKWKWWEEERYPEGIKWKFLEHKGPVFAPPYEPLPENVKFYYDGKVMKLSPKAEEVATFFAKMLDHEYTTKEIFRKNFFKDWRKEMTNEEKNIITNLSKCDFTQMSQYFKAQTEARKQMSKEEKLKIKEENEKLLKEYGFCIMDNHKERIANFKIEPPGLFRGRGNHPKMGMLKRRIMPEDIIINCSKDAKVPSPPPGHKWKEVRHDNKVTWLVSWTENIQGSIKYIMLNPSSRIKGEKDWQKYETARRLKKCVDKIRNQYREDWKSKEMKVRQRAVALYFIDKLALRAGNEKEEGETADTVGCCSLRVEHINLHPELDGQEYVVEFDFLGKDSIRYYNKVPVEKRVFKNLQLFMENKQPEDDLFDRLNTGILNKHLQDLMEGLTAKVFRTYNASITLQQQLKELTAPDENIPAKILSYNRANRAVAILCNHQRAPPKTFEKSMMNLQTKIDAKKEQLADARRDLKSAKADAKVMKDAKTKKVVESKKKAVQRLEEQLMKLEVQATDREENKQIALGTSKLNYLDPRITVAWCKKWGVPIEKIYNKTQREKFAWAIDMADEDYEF
Protocol: The DNA relaxation assay was adopted to investigate the compounds’ inhibitory activities on Topo I. Different concentrations of the compounds, dissolved and diluted in DMSO, were added into the relaxation buffer (50 mM Tris, pH 7.5, 50 mM KCl, 10 mM MgCl2, 0.1 mM EDTA, 0.5 Mm dithiothreitol, and 0.05 mg/mL bovine serum albumin) containing 0.2 U Topo I (ThermoFisher, Waltham, MA, USA) and incubated at room temperature for 10 min. After that, 500 ng supercoiled pBR322 plasmid DNA (ThermoFisher, Waltham, MA, USA) was added and then incubated at 37 °C for another 30 min. Finally, the reactions were stopped with a stopping solution (5% sodium dodecyl sulfate, 0.0025% bromophenol blue, and 25% glycerol), and the mixtures were applied onto 0.8% agarose gel and subjected to electrophoresis for 1.5 h in Tris-Acetate-EDTA buffer. After being stained with GelRed (Biotium, Fremont, CA, USA), the gel was imagined with the imaging system (Biotop, Shanghai, China). […] The band density of the supercoiled DNA was quantified by the ImageJ software (version 1.53a, National Institutes of Health, Bethesda, MD, USA), and the inhibition activity is expressed as the percentage inhibition and calculated by formula: Inhibition % = [(A − B)/(C − B)] × 100%, where A is the band density of the tested samples, B is the band density of the negative control, and C is the band density of the blank control.

[2] = DLD-1, SRB assay, 48 h, mean ± SD
[3] = MDA-MB-231, SRB assay, 48 h, mean ± SD
[4] = HepG2, SRB assay, 48 h, mean ± SD
[5] = HCT-116, SRB assay, 48 h, mean ± SD
[6] = HL-7702 hepatocyte cell line, SRB assay, 48 h, human hepatocyte, mean ± SD, read-out: IC50 Cytotoxicity HL-7702
[7] = A549, SRB assay, 48 h, mean ± SD

| SMILES | IC50 (DLD-1; [2]) [µM] | IC50 (MDA-MB-231; [3]) [µM] | IC50 (HepG2; [4]) [µM] | IC50 (HCT116; [5]) [µM] | IC50 at 48 h [1, 6] [µM] | IC50 (A549; [7]) [µM] | IC50 (DNA Topo I) [µM] | percentage inhibition on Topo I activity (DNA Topo I) | inhibition at 400 µM (DNA Topo I) [%] | IC50 (DLD-1; DLD-1, 48 h) [µM] | IC50 (MDA-MB-231; MDA-MB-231, 48 h) [µM] | IC50 (HepG2; HepG2, 48 h) [µM] | IC50 (HCT116; HCT-116, 48 h) [µM] | IC50 at 48 h ([1]; human) [µM] | IC50 (A549; A549, 48 h) [µM] |
| --- | --- | --- | --- | --- | --- | --- | --- | --- | --- | --- | --- | --- | --- | --- | --- |
| CC[C@@]1(O)C(=O)OCc2c1cc1n(c2=O)Cc2cc3ccccc3nc2-1 [CPT, Camptothecin, reference compound] | 17 ± 3.82 | 20.4 ± 3.7 | 1.71 ± 0.47 | 12.1 ± 5.74 | 2.11 | 4.41 ± 1.11 |  |  |  |  |  |  |  |  |  |
| COc1ccc(/C=C/C(=O)c2ccc(O[C@@H]3O[C@H](CO)[C@@H](O)[C@H](O)[C@H]3O)c(O[C@@H]3O[C@H](CO)[C@@H](O)[C@H](O)[C@H]3O)c2O)cc1O [Compound 1, 4-O-methylokanin 3′,4′-di-O-β-D-glucopyranoside] | > 200 | > 200 | > 200 | > 200 | > 200 | > 200 | 394 ± 39 |  |  |  |  |  |  |  |  |
| COc1ccc(/C=C/C(=O)c2ccc(O)c(O[C@@H]3O[C@H](CO)[C@@H](O)[C@H](O)[C@H]3O)c2O)cc1O [Compound 2] | > 200 | > 200 | > 200 | > 200 | > 200 | > 200 | 329 ± 58.8 |  |  |  |  |  |  |  |  |
| COc1cc(O)c2c(=O)c(OC)c(-c3ccc(O)c(O)c3)oc2c1 [Compound 4] | 7.14 ± 0.35 | > 200 | 3.05 ± 1.31 | 4.52 ± 0.04 | 19.6 ± 0.62 | 8.16 ± 4.04 | > 400 | no inhibition |  |  |  |  |  |  |  |
| COc1cc(-c2oc3cc(O)c(OC)c(O)c3c(=O)c2O)ccc1O [Compound 8] | 187 ± 48.6 | > 200 | > 200 | > 200 | > 200 | 178 ± 4.38 | 190 ± 22.1 |  |  |  |  |  |  |  |  |
| COc1ccc(-c2oc3c(O)c(OC)c(O[C@@H]4O[C@H](CO)[C@@H](O)[C@H](O)[C@H]4O)cc3c(=O)c2OC)cc1O [Compound 9] | 50.5 ± 0.31 | > 200 | > 200 | 87.7 ± 15.3 | 126 ± 7.08 | 135 ± 32.3 | > 400 | no inhibition |  |  |  |  |  |  |  |
| COc1cc(OC)cc(-c2oc3cc(O[C@@H]4O[C@H](CO)[C@@H](O)[C@H](O)[C@H]4O)cc(O)c3c(=O)c2O)c1 [Compound 10] | 63 ± 4.08 | > 200 | > 200 | 59.3 ± 4.56 | 114.8 ± 0.55 | > 200 | > 400 | no inhibition |  |  |  |  |  |  |  |
| COc1c(O[C@@H]2O[C@H](CO)[C@@H](O)[C@H](O)[C@H]2O)cc2oc(-c3ccc(O)c(O)c3)c(OC)c(=O)c2c1O [Compound 12] | > 200 | > 200 | > 200 | > 200 | > 200 | > 200 | > 400 |  | 26.4 |  |  |  |  |  |  |
| COc1ccc(-c2oc3cc(O[C@@H]4O[C@H](CO)[C@@H](O)[C@H](O)[C@H]4O)c(OC)c(O)c3c(=O)c2OC)cc1O [Compound 14] | > 200 | > 200 | > 200 | > 200 | > 200 | > 200 | > 400 | no inhibition |  |  |  |  |  |  |  |
| O=c1cc(-c2ccc(O)c(O)c2)oc2cc(O)cc(O)c12 [Compound 15, luteolin] |  |  |  |  |  |  | 89.9 ± 28.1 |  |  | 69.2 ± 4.04 | 94.91 ± 0.5 | 175 ± 16.6 | 31.7 ± 1.54 | > 200 | 93.9 ± 2.92 |
| COc1ccc([C@@H]2CC(=O)c3ccc(O)c(O[C@@H]4O[C@H](CO)[C@@H](O)[C@H](O)[C@H]4O)c3O2)cc1O [Compound 16] | > 200 | > 200 | > 200 | > 200 | > 200 | > 200 | > 400 |  | 10.9 |  |  |  |  |  |  |
| COc1ccc([C@@H]2CC(=O)c3c(O)cc(O[C@@H]4O[C@H](CO)[C@@H](O)[C@H](O)[C@H]4O)cc3O2)cc1O [Compound 17] | > 200 | > 200 | > 200 | > 200 | > 200 | > 200 | > 400 | no inhibition |  |  |  |  |  |  |  |
| O=C1/C(=C/c2ccc(O)c(O)c2)Oc2c1ccc(O[C@@H]1O[C@H](CO)[C@@H](O)[C@H](O)[C@H]1O)c2O [Compound 18] | > 200 | > 200 | > 200 | > 200 | > 200 | > 200 | > 400 |  | 46.7 |  |  |  |  |  |  |
| CC(=O)OC[C@H]1O[C@@H](Oc2ccc3c(c2O)O/C(=C\c2ccc(O)c(O)c2)C3=O)[C@H](O)[C@@H](O)[C@@H]1O [Compound 19] | > 200 | > 200 | > 200 | > 200 | > 200 | > 200 | 47.5 ± 15.3 |  |  |  |  |  |  |  |  |
| OC[C@H](O)CC#CC#Cc1ccc(O)cc1 [Compound 20, (R)-7-(4-hydroxyphenyl) hepta-4,6-diyne-1,2-diol] | > 200 | > 200 | > 200 | 174 ± 2.47 | > 200 | 194 ± 12.8 | 301 ± 34.9 |  |  |  |  |  |  |  |  |
| OCC(O)CC#CC#Cc1ccccc1 (stereo not drawn) [Compound 21] | > 200 | > 200 | > 200 | > 200 | > 200 | 187 ± 6.63 | > 400 |  | 23 |  |  |  |  |  |  |
| CC(O)CC#CC#Cc1ccccc1 (stereo not drawn) [Compound 22] | 142 ± 10.2 | 146 ± 7.17 | 179 ± 3.62 | 118 ± 5.7 | 161 ± 2.18 | 125 ± 23.4 | 178 ± 45.7 |  |  |  |  |  |  |  |  |
| CC#CC#CC#Cc1ccccc1 [Compound 23] | 123 ± 8.76 | 140 ± 5.53 | 168 ± 10.8 | 70.9 ± 3.73 | 198.8 ± 0.86 | 130 ± 4.93 | > 400 |  | 15.2 |  |  |  |  |  |  |
